In US9060989B2, “Method for treating or relieving inflammatory bowel disease” (INDUSTRIAL TECHNOLOGY RESEARCH INSTITUTE, priority 2010, dated 2015):

System: enteritis induced by trinitrobenzene sulfonic acid (TNBS)
Test: Improvement of bowel swelling and mushy or watery feces in TNBS-induced enteritis
Type: in vivo
Settings: TNBS-induced enteritis mice, oral; extracts 100 mg/kg (B. krylovianum also 1000 mg/kg), 5-ASA 200 mg/kg; 6 cm bowel from the anus observed
Text: The animal model of enteritis for test is from an induction by trinitrobenzene sulfonic acid (TNBS) (Current Protocols in Immunology (2001) 15.19.1-15.19.14; Lahat G, Halperin D, Fabian I, et al. Immunomodulatory Effects of Ciprofloxacin in TNBS-Induced Colitis in Mice. Inflamm Bowel Dis 2007;13:557-565; ten Hove T, van den Blink B, Pronk I, et al. Dichotomal role of inhibition of p38 MAPK with SB 203580 in experimental colitis. Gut 2002; 50:507-512; and Bouma G, Strober W. The Immunological and Genetic Basis of Inflammatory Bowel Disease. Nature Review Immunology 2003; 3: 521-533). The bowel in the animal model of enteritis has swelled and the feces therein show a mushy or watery appearance instead of a normal semi-solid type appearance.
Specifically, BABL/cAnNCrlBltw mice, purchased from BioLASCO Taiwan (Bltw) were grouped into four groups having 6 mice to a group. In three of the groups, each mouse was injected with 1.75 mg of trinitrobenzene sulfonic acid (TNBS) (Sigma) at a 4 cm depth of the bowel from the anus. After 48 hours, the injected location was induced to form enteritis. Mice in another group were injected with a 50% ethanol aqueous solution without TNBS at a 4 cm depth of the bowel from the anus as a negative control (A). The location injected ethanol aqueous solution without TNBS was not induced to form enteritis. […]

With `Nc1ccc(O)c(C(=O)O)c1` [5-ASA, 5-aminosalicylic acid] the bowel swelling was “not alleviated or eliminated”.
